Assays:
GPR3 = target: T1, GPR3 (Homo sapiens, UniProt P46089); test: GPR3 antagonist functional cAMP assay (LANCE Ultra cAMP TR-FRET, CHO cells stably expressing GPR3); format: cell-based
T1 construct: expressed in transfected cells; host or cells: CHO cells
Summary of the method: (§1)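 Read-out was TR-FRET cAMP signal at 665 nm after 1 h at room temperature, following 45 min compound exposure at 37 °C. Assay buffer contained 0.1% BSA and 150 μM Ro 20-1724. Antagonist IC50s were fitted with a 4-parameter logistic against DMSO and reference controls.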

GPR6 = target: T2, GPR6 (Homo sapiens, UniProt P46095); test: GPR6 antagonist functional cAMP assay (LANCE Ultra cAMP TR-FRET, CHO cells stably expressing GPR6); format: cell-based
T2 construct: expressed in transfected cells; host or cells: CHO cells
Summary of the method: as §1

[1] = procedure as described in Example 24
[2] = CHO cells stably expressing GPR3, cAMP assay (Example 24)
[3] = CHO cells stably expressing GPR6, cAMP assay (Example 24)
[4] = CHO cells stably expressing GPR3, cAMP assay
[5] = CHO cells stably expressing GPR6, cAMP assay

T2 sequence (P46095 whole entry): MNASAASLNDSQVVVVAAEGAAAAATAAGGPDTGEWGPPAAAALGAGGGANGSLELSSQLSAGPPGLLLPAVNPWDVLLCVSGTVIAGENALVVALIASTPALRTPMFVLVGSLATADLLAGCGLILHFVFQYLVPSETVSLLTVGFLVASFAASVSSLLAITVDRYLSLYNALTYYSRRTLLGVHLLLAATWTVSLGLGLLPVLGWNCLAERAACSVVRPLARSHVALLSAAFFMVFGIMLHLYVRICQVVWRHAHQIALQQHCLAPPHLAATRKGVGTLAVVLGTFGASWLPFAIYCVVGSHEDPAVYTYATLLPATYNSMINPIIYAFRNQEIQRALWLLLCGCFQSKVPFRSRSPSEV
T1 sequence (P46089 whole entry, species assumed): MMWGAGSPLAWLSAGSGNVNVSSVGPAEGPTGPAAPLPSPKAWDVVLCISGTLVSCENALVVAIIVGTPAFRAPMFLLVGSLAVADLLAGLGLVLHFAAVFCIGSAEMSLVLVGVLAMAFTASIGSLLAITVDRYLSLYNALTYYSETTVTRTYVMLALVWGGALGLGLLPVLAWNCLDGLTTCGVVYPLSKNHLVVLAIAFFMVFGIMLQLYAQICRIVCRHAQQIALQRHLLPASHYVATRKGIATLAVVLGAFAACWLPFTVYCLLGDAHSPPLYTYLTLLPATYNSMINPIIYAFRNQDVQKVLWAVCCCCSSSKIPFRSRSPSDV

Row | Compound | IC50 (GPR3; procedure of Example 24) | IC50 (GPR6; procedure of Example 24) | IC50 (GPR3; [2]) | IC50 (GPR6; [3]) | other results
1 | CNC(=O)Cn1cc(-c2nc3c(nc2N2CCC(Oc4ccc(F)cc4F)CC2)CCN(C(C)=O)C3)cn1 [Compound 25, 2-(4-{6-acetyl-2-[4-(2,4-difluorophenoxy)piperidin-1-yl]-5H,6H,7H,8H-pyrido[3,4-b]pyrazin-3-yl}-1H-pyrazol-1-yl)-N-methylacetamide] |  |  |  |  | IC50 (GPR3; [1]): 1 to 30 µM; IC50 (GPR6; [1]): 1 to 30 µM
2 | CC(=O)N1CCc2nc(N3CCC(Oc4ccc(F)cc4F)CC3)c(-c3cnn(C4CN(C(C)=O)C4)c3)nc2C1 [Compound 163, 1-[3-(4-{6-acetyl-2-[4-(2,4-difluorophenoxy)piperidin-1-yl]-5H,6H,7H,8H-pyrido[3,4-b]pyrazin-3-yl}-1H-pyrazol-1-yl)azetidin-1-yl]ethan-1-one] |  |  | 1 to 30 µM | 1 to 30 µM | 
3 | CC(C)(O)C(O)c1cc2nc(-c3cnn(C(F)F)c3)c(N3CCC(Oc4ccc(F)cc4F)CC3)nc2cn1 (single isomer, unassigned) [Compound 583] |  |  |  |  | IC50 (GPR3; [4]): 1 to 30 µM; IC50 (GPR6; [5]): < 0.1 µM
4 | Fc1ccc(CN2CCN(c3nc4cnccc4nc3-c3ncc[nH]3)CC2)c(Cl)c1 [Compound 65, 1-[(2-chloro-4-fluorophenyl)methyl]-4-[2-(1H-imidazol-2-yl)pyrido[3,4-b]pyrazin-3-yl]piperazine] |  |  | 0.1 to 1 µM | 1 to 30 µM | 
5 | Cn1cc(-c2nc3cnccc3nc2N2CCN(CC3CCCOC3)CC2)cn1 (centres unmarked) [Compound 241, 1-[3-(1-methyl-1H-pyrazol-4-yl)pyrido[3,4-b]pyrazin-2-yl]-4-[(oxan-3-yl)methyl]piperazine] |  |  | ≥ 30 µM | ≥ 30 µM | 
6 | Cn1cc(-c2nc3cnc(C(N)=O)cc3nc2N2CCC(Oc3ccc(F)cc3F)CC2)cn1 [Compound 330, 2-[4-(2,4-difluorophenoxy)piperidin-1-yl]-3-(1-methyl-1H-pyrazol-4-yl)pyrido[3,4-b]pyrazine-7-carboxamide] | 1 to 30 µM | 0.1 to 1 µM |  |  | 
7 | Cn1cc(-c2nc3ccc(C(O)C(C)(C)O)nc3nc2N2CCC(Oc3ccc(F)cc3F)CC2)cn1 (centres unmarked) [Compound 587, 1-{3-[4-(2,4-difluorophenoxy)-1-piperidyl]-2-(1-methyl-4-pyrazolyl)-1,4,5-triaza-6-naphthyl}-2-methyl-1,2-propanediol] |  |  |  |  | IC50 (GPR3; [4]): 1 to 30 µM; IC50 (GPR6; [5]): 1 to 30 µM
8 | COc1cccc(-c2nc3c(nc2N2CCC(Oc4ccc(F)cc4F)CC2)CCN(C(C)=O)C3)n1 [Compound 86, 1-(2-(4-(2,4-difluorophenoxy)piperidin-1-yl)-3-(6-methoxypyridin-2-yl)-7,8-dihydropyrido[3,4-b]pyrazin-6(5H)-yl)ethan-1-one] |  |  | 1 to 30 µM | 0.1 to 1 µM | 
9 | CC(=O)N1CCc2nc(N3CCC(Oc4ccc(F)cc4F)CC3)c(-c3cccc4nccn34)nc2C1 [Compound 129, 1-{2-[4-(2,4-difluorophenoxy)piperidin-1-yl]-3-{imidazo[1,2-a]pyridin-5-yl}-5H,6H,7H,8H-pyrido[3,4-b]pyrazin-6-yl}ethan-1-one] |  |  | 1 to 30 µM | 1 to 30 µM | 
10 | Cn1cc(-c2nc3cnccc3nc2N2CCN(CC3CCCC(F)(F)C3)CC2)cn1 (centres unmarked) [Compound 214, 1-[(3,3-difluorocyclohexyl)methyl]-4-[3-(1-methyl-1H-pyrazol-4-yl)pyrido[3,4-b]pyrazin-2-yl]piperazine] |  |  | 1 to 30 µM | 1 to 30 µM | 
11 | COC1CCCC(c2nc3c(nc2N2CCC(Oc4ccc(F)cc4F)CC2)CCN(C(C)=O)C3)C1 (centres unmarked) [Compound 248, 1-{2-[4-(2,4-difluorophenoxy)piperidin-1-yl]-3-(3-methoxycyclohexyl)-5H,6H,7H,8H-pyrido[3,4-b]pyrazin-6-yl}ethan-1-one] |  |  | 1 to 30 µM | 1 to 30 µM | 
12 | COc1cncc(-c2nc3cnc(CO)cc3nc2N2CCN(Cc3ccc(F)cc3F)CC2)n1 [Compound 95, (2-(4-(2,4-difluorobenzyl)piperazin-1-yl)-3-(6-methoxypyrazin-2-yl)pyrido[3,4-b]pyrazin-7-yl)methanol] |  |  | 1 to 30 µM | 1 to 30 µM | 
13 | Cn1cc(-c2nc3cnc([C@@](C)(O)CO)cc3nc2N2CCC(Oc3ccc(F)cc3F)CC2)cn1 (single isomer, unassigned) [Compound 564] |  |  |  |  | IC50 (GPR3; [4]): 1 to 30 µM; IC50 (GPR6; [5]): 0.1 to 1 µM
14 | CC(=O)N1CCc2nc(N3CCN(Cc4ccoc4)CC3)c(-c3cnn(C)c3)nc2C1 [Compound 529, 1-(2-{4-[(3-furyl)methyl]-1-piperazinyl}-3-(1-methyl-4-pyrazolyl)-5,6,7,8-tetrahydro-1,4,6-triaza-6-naphthyl)-1-ethanone] |  |  |  |  | IC50 (GPR3; [4]): ≥ 30 µM; IC50 (GPR6; [5]): 1 to 30 µM
15 | CC(C)(C)OC(=O)N1CCCC1C(=O)N1CCc2nc(N3CCC(Oc4ccc(F)cc4F)CC3)c(-c3cnn(C4CCCCO4)c3)nc2C1 (centres unmarked) [Compound 186, tert-butyl 2-{2-[4-(2,4-difluorophenoxy)piperidin-1-yl]-3-[1-(oxan-2-yl)-1H-pyrazol-4-yl]-5H,6H,7H,8H-pyrido[3,4-b]pyrazine-6-carbonyl}pyrrolidine-1-carboxylate] |  |  | 1 to 30 µM | 1 to 30 µM | 
16 | COc1ccc(C(=O)N2CCN(c3nc4c(nc3-c3cnn(C)c3)CN(C(C)=O)CC4)CC2)c(F)c1 [Compound 254, 1-{2-[4-(2-fluoro-4-methoxybenzoyl)piperazin-1-yl]-3-(1-methyl-1H-pyrazol-4-yl)-5H,6H,7H,8H-pyrido[3,4-b]pyrazin-6-yl}ethan-1-one] |  |  | 1 to 30 µM | 1 to 30 µM | 
17 | Fc1ccc(OC2CCN(c3nc4ccncc4nc3-c3ccn[nH]3)CC2)c(F)c1 [Compound 85, 4-(2,4-difluorophenoxy)-1-[3-(1H-pyrazol-5-yl)pyrido[3,4-b]pyrazin-2-yl]piperidine] |  |  | 1 to 30 µM | 1 to 30 µM | 
18 | OCC1CN(c2nc3ccncc3nc2-c2cn[nH]c2)CCN1Cc1ccc(F)cc1F (single isomer, unassigned) [Compound 93, (4-(3-(1H-pyrazol-4-yl)pyrido[3,4-b]pyrazin-2-yl)-1-(2,4-difluorobenzyl)piperazin-2-yl)methanol] |  |  | ≥ 30 µM | 1 to 30 µM | 
19 | CC(=O)N1CCc2nc(N3CCC(Oc4ccc(F)cc4F)CC3)c(-c3ncc[nH]3)nc2C1 [Compound 40, 1-(2-(4-(2,4-difluorophenoxy)piperidin-1-yl)-3-(1H-imidazol-2-yl)-7,8-dihydropyrido[3,4-b]pyrazin-6(5H)-yl)ethan-1-one] |  |  |  |  | IC50 (GPR3; [1]): 1 to 30 µM; IC50 (GPR6; [1]): 1 to 30 µM

Further lines, with some results ahead:

Row | IC50 (GPR3; procedure of Example 24) | IC50 (GPR6; procedure of Example 24) | IC50 (GPR3; [2]) | IC50 (GPR6; [3]) | Compound | other results
20 | 1 to 30 µM | 0.1 to 1 µM |  |  | CC(C)(O)[C@](C)(O)c1cc2nc(N3CCN(Cc4ccc(F)cc4F)CC3)c(-c3cnn(C4CC4)c3)nc2cn1 (single isomer, unassigned) [Compound 666] | 
21 | 1 to 30 µM | 0.1 to 1 µM |  |  | CC(C)(O)[C@@](C)(O)c1cc2nc(N3CCC(Oc4ccc(F)cc4F)CC3)c(-c3cnn(CF)c3)nc2cn1 (single isomer, unassigned) [Compound 678] | 
22 | 1 to 30 µM | 1 to 30 µM |  |  | CC(=O)N1CCc2nc(N3CCN(Cc4ccccc4C#N)CC3)c(-c3cnn(C)c3)nc2C1 [Compound 351, 2-({4-[6-acetyl-3-(1-methyl-1H-pyrazol-4-yl)-5H,6H,7H,8H-pyrido[3,4-b]pyrazin-2-yl]piperazin-1-yl}methyl)benzonitrile] | 
23 |  |  | 1 to 30 µM | 1 to 30 µM | Cn1cc(-c2nc3cnc(N)cc3nc2N2CCC(Oc3cc(Cl)ccc3Cl)CC2)cn1 [Compound 443, 2-[4-(2,5-dichlorophenoxy)piperidin-1-yl]-3-(1-methyl-1H-pyrazol-4-yl)pyrido[3,4-b]pyrazin-7-amine] | 
24 | 1 to 30 µM | < 0.1 µM |  |  | CC(C)(O)[C@@](C)(O)c1cc2nc(-c3cnn(C4CC4)c3)c(N3CCN(Cc4ccc(F)cc4F)CC3)nc2cn1 (single isomer, unassigned) [Compound 682] | 
25 |  |  | 1 to 30 µM | 0.1 to 1 µM | COc1ccc(OC2CCN(c3nc4cnncc4nc3-c3cnn(C)c3)CC2)c(F)c1 [Compound 417, 4-(2-fluoro-4-methoxyphenoxy)-1-[3-(1-methyl-1H-pyrazol-4-yl)pyrazino[2,3-d]pyridazin-2-yl]piperidine] | 
26 | 1 to 30 µM | 0.1 to 1 µM |  |  | CCn1cc(-c2nc3cnc([C@](C)(O)C(C)(C)O)cc3nc2N2CCN(Cc3ccc(F)cc3F)CC2)cn1 (single isomer, unassigned) [Compound 697] | 
27 |  |  | 1 to 30 µM | < 0.1 µM | Cc1nccc2nc(N3CCC(Oc4ccc(F)cc4F)CC3)c(-c3cnn(C)c3)nc12 [Compound 487, 4-(2,4-difluorophenoxy)-1-[5-methyl-3-(1-methyl-1H-pyrazol-4-yl)pyrido[3,4-b]pyrazin-2-yl]piperidine] | 
28 | 0.1 to 1 µM | < 0.1 µM |  |  | COC[C@@H](O)c1cc2nc(-c3cnn(C)c3)c(N3CCC(Oc4ccc(F)cc4F)CC3)nc2cn1 (single isomer, unassigned) [Compound 680] | 
29 | 1 to 30 µM | 0.1 to 1 µM |  |  | CCn1cc(-c2nc3cnc(C(=O)C(C)(C)O)cc3nc2N2CCN(Cc3ccc(F)cc3F)CC2)cn1 [Compound 624, 1-(2-{4-[(2,4-difluorophenyl)methyl]-1-piperazinyl}-3-(1-ethyl-4-pyrazolyl)-1,4,6-triaza-7-naphthyl)-2-hydroxy-2-methyl-1-propanone] | 
30 | 1 to 30 µM | 0.1 to 1 µM |  |  | CC(C)(O)C(C)(O)c1cc2nc(N3CCN(Cc4ccc(F)cc4F)CC3)c(-c3cnn(C(F)F)c3)nc2cn1 (centres unmarked) [Compound 657, 2-{3-[1-(difluoromethyl)-4-pyrazolyl]-2-{4-[(2,4-difluorophenyl)methyl]-1-piperazinyl}-1,4,6-triaza-7-naphthyl}-3-methyl-2,3-butanediol] | 
31 | 1 to 30 µM | 1 to 30 µM |  |  | CC(=O)N1CCc2nc(N3CCN(Cc4ccc(F)cc4C)CC3)c(-c3cnn(C)c3)nc2C1 [Compound 347, 1-(2-{4-[(4-fluoro-2-methylphenyl)methyl]piperazin-1-yl}-3-(1-methyl-1H-pyrazol-4-yl)-5H,6H,7H,8H-pyrido[3,4-b]pyrazin-6-yl)ethan-1-one] | 
